Laboratory results: article PMC10821532, “Sex and Cross-Sex Testosterone Treatment Alters Gamma-Hydroxybutyrate Acid Toxicokinetics and Toxicodynamics in Rats” (Pharmaceutics, 2024)
Where two headings read alike, the source gives them in different places.

Assay: GHB toxicokinetic study, i.v. bolus, plasma and urine up to 8 h, noncompartmental analysis
Type: in vivo, Sprague Dawley rats
Details: rat, iv
Protocol: Male and female Sprague Dawley (SD) rats, ovariectomized (OVX) females, and castrated (CST) males were obtained from Charles River (Wilmington, MA, USA) at 8 weeks of age. The animals were housed under controlled temperature and humidity with an artificial 12 h light/dark cycle, and food and water were available ad libitum. The animals were acclimatized for at least one week before experiments. Hormone treatment was conducted by implanting OVX female and CST male rats subcutaneously with 60-day release pellets containing 7.5 mg testosterone or corresponding placebo pellets (Innovative Research of America) at 10 weeks of age. After 21 days of hormone exposure, rats were utilized in toxicokinetic studies. Age-matched male and female rats were used as control groups. Female rats in the estrus stage were selected for the study. Estrus cycle stages of female rats were monitored daily by vaginal lavage smear, as described in previously published literature. The Institutional Animal Care and Use Committee (IACUC) at the University of the Pacific approved all experiments.
Jugular vein cannulas were surgically implanted under anesthesia with ketamine/xylazine. Cannulas were flushed daily with heparinized saline to maintain patency. Rats were allowed a minimum of 72 h for recovery from surgery before the experiments were conducted. GHB was administered intravenously as a 1000 mg/kg i.v. bolus or 1500 mg/kg iv bolus with or without AR-C155858 (1 mg/kg i.v. bolus) via a jugular vein cannula to the animals at 13 weeks of age (N = 5–7 per group). Rats were dosed in metabolic cages with ad libitum access to water to allow for the concurrent collection of blood and urine samples for up to 8 h. GHB was administered as a 300 mg/mL solution in sterile water, and the time of administration was considered as time 0. AR-C155858 was administered as a 1 mg/mL solution in 10% cyclodextrin in normal saline 5 min after GHB administration. Blood samples (200 μL) were taken from the jugular vein cannula at different time points: 5, 10, 20, 30, 60, 90, 120, 180, 240, 270, 300, and 330 min for 1000 mg/kg and 10, 30, 60, 90, 120, 180, 240, 270, 300, 330, 360, and 390/480 min for 1500 mg/kg bolus with or without AR-C155858. Plasma samples were separated by centrifugation and stored at −20 °C. Urine samples were collected at 120, 240, and 360 min for 1000 mg/kg and 120, 240, and 390/480 min for 1500 mg/kg bolus with or without AR-C155858 post-dose; the total urine volume was determined, and the samples were stored at −20 °C.
GHB in plasma and urine were quantified using a validated liquid chromatography/tandem mass spectrometry (LC/MS/MS) assay that was described previously. Briefly, for the preparation of plasma standards and quality controls (QCs), 5 μL of GHB-d6 and 5 μL of standard stock solution or QC stock solution were added to 45 μL of blank plasma. For each unknown plasma sample, 5 μL of GHB-d6 was added to 50 μL of plasma. Protein precipitation was then performed by the addition of 800 μL of acetonitrile with 0.1% formic acid, followed by centrifugation at 10,000 rpm for 20 min. 750 μL of the supernatant was transferred to a clean disposable glass tube and evaporated using a MultiVap Nitrogen Evaporator (Organomation, Berlin, MA, USA) under a nitrogen stream. Dried samples were reconstituted in 250 μL of 95:5 double-distilled water—acetonitrile with 0.1% acetic acid. For urine standards and QCs, 25 μL of blank urine, 5 μL of standard or QC stock solution, 5 μL of GHB-d6, and 465 μL of double-distilled water were mixed. For unknown urine samples, 25 μL of the sample was added to 5 μL of GHB-d6 and 470 μL of double-distilled water. The same LC/MS/MS method was used for GHB plasma and urine analyses. LC/MS/MS equipment consisted of an Agilent 1200 series UPLC consisting of an online degasser, binary pump, and autosampler (Agilent Technologies, Santa Clara, CA, USA) connected to a Agilent 6460 Triple Quad Mass Spectrometer. […]

O=C(O)CCCO [GHB, Γ-hydroxybutyric acid]
clearance (female, Sprague Dawley, plasma and urine, 1000 mg/kg, 1000 mg/kg GHB iv, intact female (estrus) rats, read-out: CLm – Metabolic clearance): 4.1 ± 0.6 mL/min/kg | CL renal (female, Sprague Dawley, plasma and urine, 1500 mg/kg, 1500 mg/kg GHB iv, OVX testosterone placebo rats, read-out: CLR (renal clearance)): 3.5 ± 0.5 mL/min/kg | CL renal (female, Sprague Dawley, plasma and urine, 1500 mg/kg, 1500 mg/kg GHB iv, OVX testosterone rats, read-out: CLR (renal clearance)): 2.7 ± 1.5 mL/min/kg | CL renal (female, Sprague Dawley, plasma and urine, 1500 mg/kg, 1500 mg/kg GHB iv, intact female (estrus) rats, read-out: CLR (renal clearance)): 3.7 ± 1.1 mL/min/kg | clearance (female, Sprague Dawley, plasma, 1000 mg/kg, 1000 mg/kg GHB iv, OVX testosterone placebo rats, read-out: CL - Total clearance): 5.5 ± 0.3 mL/min/kg | clearance (female, Sprague Dawley, plasma, 1000 mg/kg, 1000 mg/kg GHB iv, intact female (estrus) rats, read-out: CL - Total clearance): 6.8 ± 0.7 mL/min/kg | clearance (female, Sprague Dawley, plasma, 1500 mg/kg, 1500 mg/kg GHB iv, intact female (estrus) rats, read-out: CL (total clearance)): 4.7 ± 1.1 mL/min/kg | CL renal (female, Sprague-Dawley, plasma and urine, 1500 mg/kg, 1500 mg/kg GHB + 1mg/kg AR-C 155858 iv, OVX testosterone placebo rats, read-out: CLR (renal clearance)): 7 ± 1.4 mL/min/kg | clearance (female, Sprague-Dawley, plasma and urine, 1500 mg/kg, 1500 mg/kg GHB + 1mg/kg AR-C 155858 iv, OVX testosterone placebo rats, read-out: CLm (metabolic clearance)): 2.7 ± 0.9 mL/min/kg | CL renal (female, Sprague-Dawley, plasma and urine, 1500 mg/kg, 1500 mg/kg GHB + 1mg/kg AR-C 155858 iv, OVX testosterone rats, read-out: CLR (renal clearance)): 7 ± 0.9 mL/min/kg | clearance (female, Sprague-Dawley, plasma and urine, 1500 mg/kg, 1500 mg/kg GHB + 1mg/kg AR-C 155858 iv, OVX testosterone rats, read-out: CLm (metabolic clearance)): 2.4 ± 1.3 mL/min/kg | CL renal (female, Sprague-Dawley, plasma and urine, 1500 mg/kg, 1500 mg/kg GHB + 1mg/kg AR-C 155858 iv, intact female (estrus) rats, read-out: CLR (renal clearance)): 6.3 ± 1.8 mL/min/kg | clearance (female, Sprague-Dawley, plasma and urine, 1500 mg/kg, 1500 mg/kg GHB + 1mg/kg AR-C 155858 iv, intact female (estrus) rats, read-out: CLm (metabolic clearance)): 2.2 ± 0.4 mL/min/kg | clearance (female, Sprague-Dawley, plasma, 1500 mg/kg, 1500 mg/kg GHB + 1mg/kg AR-C 155858 iv, OVX testosterone placebo rats, read-out: CL (total clearance)): 9.7 ± 2.1 mL/min/kg | clearance (female, Sprague-Dawley, plasma, 1500 mg/kg, 1500 mg/kg GHB + 1mg/kg AR-C 155858 iv, OVX testosterone rats, read-out: CL (total clearance)): 9.4 ± 1.4 mL/min/kg | clearance (female, Sprague-Dawley, plasma, 1500 mg/kg, 1500 mg/kg GHB + 1mg/kg AR-C 155858 iv, intact female (estrus) rats, read-out: CL (total clearance)): 8.5 ± 1.9 mL/min/kg | clearance (female, Sprague-Dawley, plasma, 1500 mg/kg, 1500 mg/kg GHB iv, OVX testosterone placebo rats, read-out: CL (total clearance)): 5.7 ± 0.9 mL/min/kg | CL renal (male, Sprague Dawley, plasma and urine, 1000 mg/kg, 1000 mg/kg GHB iv, CST testosterone placebo rats, read-out: CLR - Renal clearance): 3 ± 0.7 mL/min/kg | clearance (male, Sprague Dawley, plasma and urine, 1000 mg/kg, 1000 mg/kg GHB iv, CST testosterone placebo rats, read-out: CLm – Metabolic clearance): 1.6 ± 0.5 mL/min/kg | clearance (male, Sprague Dawley, plasma and urine, 1000 mg/kg, 1000 mg/kg GHB iv, CST testosterone rats, read-out: CLm – Metabolic clearance): 2.1 ± 0.4 mL/min/kg | CL renal (male, Sprague Dawley, plasma and urine, 1000 mg/kg, 1000 mg/kg GHB iv, intact male rats, read-out: CLR - Renal clearance): 2.2 ± 0.4 mL/min/kg | clearance (male, Sprague Dawley, plasma and urine, 1000 mg/kg, 1000 mg/kg GHB iv, intact male rats, read-out: CLm – Metabolic clearance): 2.4 ± 0.5 mL/min/kg | CL renal (male, Sprague Dawley, plasma and urine, 1500 mg/kg, 1500 mg/kg GHB iv, CST testosterone placebo rats, read-out: CLR (renal clearance)): 2.9 ± 0.4 mL/min/kg | CL renal (male, Sprague Dawley, plasma and urine, 1500 mg/kg, 1500 mg/kg GHB iv, intact male rats, read-out: CLR (renal clearance)): 4.2 ± 1.3 mL/min/kg | clearance (male, Sprague Dawley, plasma, 1000 mg/kg, 1000 mg/kg GHB iv, CST testosterone placebo rats, read-out: CL - Total clearance): 4.6 ± 0.8 mL/min/kg | clearance (male, Sprague Dawley, plasma, 1000 mg/kg, 1000 mg/kg GHB iv, CST testosterone rats, read-out: CL - Total clearance): 5.3 ± 1 mL/min/kg | clearance (male, Sprague Dawley, plasma, 1000 mg/kg, 1000 mg/kg GHB iv, intact male rats, read-out: CL - Total clearance): 4.6 ± 0.8 mL/min/kg | clearance (male, Sprague Dawley, plasma, 1500 mg/kg, 1500 mg/kg GHB iv, intact male rats, read-out: CL (total clearance)): 4.8 ± 1.4 mL/min/kg | CL renal (male, Sprague-Dawley, plasma and urine, 1000 mg/kg, 1000 mg/kg GHB iv, CST testosterone rats, read-out: CLR - Renal clearance): 3.2 ± 0.9 mL/min/kg | CL renal (male, Sprague-Dawley, plasma and urine, 1500 mg/kg, 1500 mg/kg GHB + 1mg/kg AR-C 155858 iv, CST testosterone placebo rats, read-out: CLR (renal clearance)): 5.4 ± 1.1 mL/min/kg | clearance (male, Sprague-Dawley, plasma and urine, 1500 mg/kg, 1500 mg/kg GHB + 1mg/kg AR-C 155858 iv, CST testosterone placebo rats, read-out: CLm (metabolic clearance)): 2.5 ± 1.3 mL/min/kg | CL renal (male, Sprague-Dawley, plasma and urine, 1500 mg/kg, 1500 mg/kg GHB + 1mg/kg AR-C 155858 iv, CST testosterone rats, read-out: CLR (renal clearance)): 5.6 ± 1.2 mL/min/kg | clearance (male, Sprague-Dawley, plasma and urine, 1500 mg/kg, 1500 mg/kg GHB + 1mg/kg AR-C 155858 iv, CST testosterone rats, read-out: CLm (metabolic clearance)): 1.9 ± 0.1 mL/min/kg | CL renal (male, Sprague-Dawley, plasma and urine, 1500 mg/kg, 1500 mg/kg GHB + 1mg/kg AR-C 155858 iv, intact male rats, read-out: CLR (renal clearance)): 6.1 ± 0.5 mL/min/kg | clearance (male, Sprague-Dawley, plasma and urine, 1500 mg/kg, 1500 mg/kg GHB + 1mg/kg AR-C 155858 iv, intact male rats, read-out: CLm (metabolic clearance)): 2.1 ± 0.3 mL/min/kg | CL renal (male, Sprague-Dawley, plasma and urine, 1500 mg/kg, 1500 mg/kg GHB iv, CST testosterone rats, read-out: CLR (renal clearance)): 1.4 ± 0.6 mL/min/kg | clearance (male, Sprague-Dawley, plasma, 1500 mg/kg, 1500 mg/kg GHB + 1mg/kg AR-C 155858 iv, CST testosterone placebo rats, read-out: CL (total clearance)): 7.9 ± 1.2 mL/min/kg | clearance (male, Sprague-Dawley, plasma, 1500 mg/kg, 1500 mg/kg GHB + 1mg/kg AR-C 155858 iv, CST testosterone rats, read-out: CL (total clearance)): 7.5 ± 1.4 mL/min/kg | clearance (male, Sprague-Dawley, plasma, 1500 mg/kg, 1500 mg/kg GHB + 1mg/kg AR-C 155858 iv, intact male rats, read-out: CL (total clearance)): 8.2 ± 0.6 mL/min/kg | clearance (male, Sprague-Dawley, plasma, 1500 mg/kg, 1500 mg/kg GHB iv, CST testosterone placebo rats, read-out: CL (total clearance)): 4.9 ± 0.4 mL/min/kg | clearance (male, Sprague-Dawley, plasma, 1500 mg/kg, 1500 mg/kg GHB iv, CST testosterone rats, read-out: CL (total clearance)): 3.2 ± 0.7 mL/min/kg
